Laboratory results: PubChem BioAssay AID1963826 (Molecular Pharmacology Branch, DTP, NCI, 2024)

Tested on: 926638-142-R-J1-PDC complex spheroid viability
Test: Anticancer human tumor 926638-142-R-J1-PDC patient-derived endometrial carcinoma cell line growth inhibition [POLQ]
Settings: for IC50: curve of first compound; for viability, T/C: stronger effect = lower value
Procedure, shortened: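 Patient-derived tumour cells were co-cultured with HUVEC and mesenchymal stem cells as multicellular spheroids at 37 °C. They were treated with POLQ inhibitors (novobiocin, ART-558, RP6685) alone or combined with other agents. Top concentrations were at or near clinical Cmax (otherwise 10 microM; SN-38 at 1 microM), decreasing in half-log steps.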
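Note: spheroids exposed to drugs for one week before readout.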
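Throughout, for viability, T/C: percent viability relative to DMSO vehicle control wells set as 100%.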

In the case of CC(=O)O[C@H]1C(=O)[C@@]2(C)[C@H]([C@H](OC(=O)c3ccccc3)[C@]3(O)C[C@H](OC(=O)[C@H](O)[C@@H](NC(=O)c4ccccc4)c4ccccc4)C(C)=C1C3(C)C)[C@]1(OC(C)=O)CO[C@@H]1C[C@@H]2O + Cc1cccc(N(C)C(=O)C2C(O)CCN2c2nc(C)cc(C(F)(F)F)c2C#N)c1, the IC50 (second compound 0.0316 µM) is reported as 659 nM, the IC50 (second compound 0.1 µM) is reported as over 3000 nM and the IC50 (second compound 0.316 µM) is reported as 800 nM. For the same molecule, the IC50 (second compound 1 µM) was 2380 nM, the IC50 (second compound 3.16 µM) was 1300 nM and the IC50 (second compound 10 µM) was 817 nM. The viability, T/C (second compound 0.0316 µM, first compound 0.00949 µM) was 88.1%, the viability, T/C (second compound 0.0316 µM, first compound 0.03 µM) was 62.9% and the viability, T/C (second compound 0.0316 µM, first compound 0.0949 µM) was 56.8%. The viability, T/C (second compound 0.0316 µM, first compound 0.3 µM) was 56.1%, the viability, T/C (second compound 0.0316 µM, first compound 0.949 µM) was 53.9% and the viability, T/C (second compound 0.0316 µM, first compound 3 µM) was 41.5%. The viability, T/C (second compound 0.1 µM, first compound 0.00949 µM) was 87.5%, the viability, T/C (second compound 0.1 µM, first compound 0.03 µM) was 65.8% and the viability, T/C (second compound 0.1 µM, first compound 0.0949 µM) was 62.1%. For the same molecule, the viability, T/C (second compound 0.1 µM, first compound 0.3 µM) was 52.4%, the viability, T/C (second compound 0.1 µM, first compound 0.949 µM) was 58.3% and the viability, T/C (second compound 0.1 µM, first compound 3 µM) was 51.4%. It also gave a viability, T/C (second compound 0.316 µM, first compound 0.00949 µM) of 79.2%, a viability, T/C (second compound 0.316 µM, first compound 0.03 µM) of 77% and a viability, T/C (second compound 0.316 µM, first compound 0.0949 µM) of 66.8%. For the same molecule, the viability, T/C (second compound 0.316 µM, first compound 0.3 µM) was 56.1%, the viability, T/C (second compound 0.316 µM, first compound 0.949 µM) was 50.5% and the viability, T/C (second compound 0.316 µM, first compound 3 µM) was 43.2%. The viability, T/C (second compound 1 µM, first compound 0.00949 µM) was 76.3%, the viability, T/C (second compound 1 µM, first compound 0.03 µM) was 68.6% and the viability, T/C (second compound 1 µM, first compound 0.0949 µM) was 61.7%. It also gave a viability, T/C (second compound 1 µM, first compound 0.3 µM) of 57.6%, a viability, T/C (second compound 1 µM, first compound 0.949 µM) of 67.2% and a viability, T/C (second compound 1 µM, first compound 3 µM) of 43.1%. For the same molecule, the viability, T/C (second compound 3.16 µM, first compound 0.00949 µM) was 70.6%, the viability, T/C (second compound 3.16 µM, first compound 0.03 µM) was 61% and the viability, T/C (second compound 3.16 µM, first compound 0.0949 µM) was 55.4%. For the same molecule, the viability, T/C (second compound 3.16 µM, first compound 0.3 µM) was 55.4%, the viability, T/C (second compound 3.16 µM, first compound 0.949 µM) was 57% and the viability, T/C (second compound 3.16 µM, first compound 3 µM) was 43.8%. For the same molecule, the viability, T/C (second compound 10 µM, first compound 0.00949 µM) was 72.8%, the viability, T/C (second compound 10 µM, first compound 0.03 µM) was 63.2% and the viability, T/C (second compound 10 µM, first compound 0.0949 µM) was 55.9%. It also gave a viability, T/C (second compound 10 µM, first compound 0.3 µM) of 57.5%, a viability, T/C (second compound 10 µM, first compound 0.949 µM) of 50.8% and a viability, T/C (second compound 10 µM, first compound 3 µM) of 44.2%.

In the case of COc1cccc(OCCCN)c1-c1cc(Nc2cnc(C#N)cn2)n[nH]1 + Cc1cccc(N(C)C(=O)C2C(O)CCN2c2nc(C)cc(C(F)(F)F)c2C#N)c1, the IC50 (second compound 0.0316 µM) is reported as 56.8 nM, the IC50 (second compound 0.1 µM) is reported as 59.4 nM and the IC50 (second compound 0.316 µM) is reported as 47.7 nM. For the same molecule, the IC50 (second compound 1 µM) was 50.4 nM, the IC50 (second compound 3.16 µM) was 108 nM and the IC50 (second compound 10 µM) was 29 nM. It also gave a viability, T/C (second compound 0.0316 µM, first compound 0.00316 µM) of 99.5%, a viability, T/C (second compound 0.0316 µM, first compound 0.01 µM) of 72.9% and a viability, T/C (second compound 0.0316 µM, first compound 0.0316 µM) of 51.1%. For the same molecule, the viability, T/C (second compound 0.0316 µM, first compound 0.1 µM) was 49.4%, the viability, T/C (second compound 0.0316 µM, first compound 0.316 µM) was 39.5% and the viability, T/C (second compound 0.0316 µM, first compound 1 µM) was 36%. It also gave a viability, T/C (second compound 0.1 µM, first compound 0.00316 µM) of 102%, a viability, T/C (second compound 0.1 µM, first compound 0.01 µM) of 81.8% and a viability, T/C (second compound 0.1 µM, first compound 0.0316 µM) of 54.2%. For the same molecule, the viability, T/C (second compound 0.1 µM, first compound 0.1 µM) was 47.2%, the viability, T/C (second compound 0.1 µM, first compound 0.316 µM) was 46.1% and the viability, T/C (second compound 0.1 µM, first compound 1 µM) was 37.8%. It also gave a viability, T/C (second compound 0.316 µM, first compound 0.00316 µM) of 99.3%, a viability, T/C (second compound 0.316 µM, first compound 0.01 µM) of 61.6% and a viability, T/C (second compound 0.316 µM, first compound 0.0316 µM) of 59.7%. The viability, T/C (second compound 0.316 µM, first compound 0.1 µM) was 43.6%, the viability, T/C (second compound 0.316 µM, first compound 0.316 µM) was 44.1% and the viability, T/C (second compound 0.316 µM, first compound 1 µM) was 30.4%. It also gave a viability, T/C (second compound 1 µM, first compound 0.00316 µM) of 96.6%, a viability, T/C (second compound 1 µM, first compound 0.01 µM) of 79.2% and a viability, T/C (second compound 1 µM, first compound 0.0316 µM) of 53.5%. It also gave a viability, T/C (second compound 1 µM, first compound 0.1 µM) of 43.3%, a viability, T/C (second compound 1 µM, first compound 0.316 µM) of 49.2% and a viability, T/C (second compound 1 µM, first compound 1 µM) of 34.3%. It also gave a viability, T/C (second compound 3.16 µM, first compound 0.00316 µM) of 89.4%, a viability, T/C (second compound 3.16 µM, first compound 0.01 µM) of 65.9% and a viability, T/C (second compound 3.16 µM, first compound 0.0316 µM) of 62.1%. The viability, T/C (second compound 3.16 µM, first compound 0.1 µM) was 49.2%, the viability, T/C (second compound 3.16 µM, first compound 0.316 µM) was 47.5% and the viability, T/C (second compound 3.16 µM, first compound 1 µM) was 33.7%. It also gave a viability, T/C (second compound 10 µM, first compound 0.00316 µM) of 83.5%, a viability, T/C (second compound 10 µM, first compound 0.01 µM) of 80.9% and a viability, T/C (second compound 10 µM, first compound 0.0316 µM) of 47%. It also gave a viability, T/C (second compound 10 µM, first compound 0.1 µM) of 40.2%, a viability, T/C (second compound 10 µM, first compound 0.316 µM) of 38.6% and a viability, T/C (second compound 10 µM, first compound 1 µM) of 27.3%.
